Values joined by “and” are separate entries in the source; they are usually repeats but may differ in a detail not shown here. Equal values may be shown once.
Legend:
C. parvum oocysts [1] = assay: In vitro C. parvum infectivity in Madin Darby Bovine Kidney cells (fluorescent antibody count of infected cells); assay type: cell-based, Cryptosporidium parvum; conditions: MDBK cells, 46 hours of infection, means of 12 high powered fields
Procedure: Activity of polyfensin compounds for Cryptosporidium parvum in vitro. Combination therapy of Polymer B with paromomycin Madin Darby Bovine Kidney cells were infected with C. parvum oocysts in the presence of media alone, paromomycin (2 and 0.25 mg/ml), Polymer B (0.01 or 0.001 mg/ml) or Polymer B (0.01 or 0.001 mg/ml) plus paromomycin at 0.25 mg/ml. After 4 hours of treatment, polymer was removed and replaced with media. After 46 hours of infection the monolayers were fixed, stained with fluorescent antibodies to cryptosporidium, and the numbers of infected cells were enumerated. Parasite numbers represent the means of 12 high powered fields, and numbers of parasites were normalized relative to treatment with media alone (arbitrarily set at 100). […] In vitro Combination therapy of Polymer A with paromomycin. Madin Darby Bovine kidney cells were infected with C. parvum oocysts in the presence of media alone, paromomycin (2 and 0.25 mg/ml), Polymer A (0.01 or 0.001 mg/ml) or Polymer A (0.0 1 or 0.00 1 mg/ml plus paromomycin at 0.25 mg/ml). After 4 hours of treatment, polymer was removed and replaced with media. After 46 hours of infection the monolayers were fixed, stained with fluorescent antibodies to cryptosporidium, and the numbers of infected cells were enumerated. Parasite numbers represent the means of 12 high powered fields, and numbers of parasites were normalized relative to treatment with media alone (arbitrarily set at 100).

C. parvum oocysts [2] = assay: In vivo oocyst shedding in C. parvum infected SCID mice; conditions: SCID mice infected day 0; prm alone 500 mg/kg/day by oral gavage from day 7; fecal smears, acid fast staining; water alone 25
Procedure: In vivo activity of selected polymers in combination with parmomycin
Severe combined immunodeficient mice (SCID) were infected with C. parvum oocysts on day 0. On day 7, mice were treated with water or Polymers A, E and D by delivery in maple flavored drinking water at 2000 mg/kg/day. For each treatment, mice additionally received water or 500 mg/kg/day paromomycin (prm) by oral gavage. Oocyst shedding was quantitated in fecal smears by acid fast staining. Average numbers of oocysts shed were as follows: Treatment with water alone, 25; treatment with prm alone 12. Treatment with polymers alone gave modest changes in oocysts shedding and ranged from ˜20% reduction in oocysts; to a ˜20% increase in shedding, relative to treatment with water alone. Combination of polymers with prm gave reductions in oocysts in the range of 50-90% relative to treatment with prm alone.

NC[C@@H]1O[C@H](O[C@H]2[C@@H](O)[C@H](O[C@@H]3[C@@H](O)[C@H](N)C[C@H](N)[C@H]3O[C@H]3O[C@H](CO)[C@@H](O)[C@H](O)[C@H]3N)O[C@@H]2CO)[C@H](N)[C@@H](O)[C@@H]1O [paromomycin]
parasite numbers normalized relative to treatment with media alone (arbitrarily set at 100) (C. parvum oocysts [1]; paromomycin alone at 0.25 mg/ml): 61.5 and 73.0
parasite numbers normalized relative to treatment with media alone (arbitrarily set at 100) (C. parvum oocysts [1]; paromomycin alone at 2 mg/ml): 15.3
parasite numbers normalized relative to treatment with media alone (arbitrarily set at 100) (C. parvum oocysts [1]; paromomycin alone at 2 mg/ml, listed as parmomycin): 15.4
Average numbers of oocysts shed (C. parvum oocysts [2]): 12
